Laboratory results as given in patent publication US20230225973A1, “MULTI-LAYERED MEDICAMENT FOR INHALATION” (Mylan Pharma UK Limited, priority 2020, published 2023).

Columns and labels:
[1] = Comparison of fine particle dose (FPD) performance of blended combination, layer filled combination and baseline products; type: physicochemical; settings: FIG. 6; product T3 (low shear triple blend)
Experimental: The two options were to either: 1) layer fill blends of the individual products or; 2) low shear mix blends of the individual products. The individual products were either 0.58% w/w salmeterol xinafoate/4% w/w fluticasone propionate combination blend or 4.8% w/w 5-[3-(3-Hydroxyphenoxy)azetidin-1-yl]-5-methyl-2,2-diphenylhexanamide hydrochloride blend.
Four products (L1, L2, L3, and T3) were prepared as outline below. Products L1 and L2 were the baseline products for the layer filled combination product L3, and the blended combination product, T3.
The blend is made of 4.8% w/w 5-[3-(3-Hydroxyphenoxy)azetidin-1-yl]-5-methyl-2,2-diphenylhexanamide hydrochloride mixed with lactose monohydrate in a Diosna high shear blender. The nominal dose of 5-[3-(3-Hydroxyphenoxy)azetidin-1-yl]-5-methyl-2,2-diphenylhexanamide hydrochloride per pocket is 264 mcg.
The blend is made of 0.58% w/w salmeterol xinafoate and 4% w/w fluticasone propionate mixed with lactose monohydrate in a Diosna high shear blender. The nominal doses of salmeterol xinafoate and fluticasone propionate per pocket are 72.5 mcg and 500 mcg, respectively.
The salmeterol xinafoate/fluticasone propionate blend is made of 0.58% w/w salmeterol xinafoate and 4% w/w fluticasone propionate mixed with lactose monohydrate in a Diosna high shear blender. The 5-[3-(3-Hydroxyphenoxy)azetidin-1-yl]-5-methyl-2,2-diphenylhexanamide hydrochloride blend is made of 4.8% w/w 5-[3-(3-Hydroxyphenoxy)azetidin-1-yl]-5-methyl-2,2-diphenylhexanamide hydrochloride mixed with lactose monohydrate in a Diosna high shear blender. The nominal doses of salmeterol xinafoate, fluticasone propionate and 5-[3-(3-Hydroxyphenoxy)azetidin-1-yl]-5-methyl-2,2-diphenylhexanamide hydrochloride per pocket are 72.5 mcg, 500 mcg and 264 mcg, respectively.
The triple blend is prepared by mixing with a low shear Turbula mixer, a 0.58% w/w salmeterol xinafoate, 4% w/w fluticasone propionate blend with 4.8% w/w 5-[3-(3-Hydroxyphenoxy)azetidin-1-yl]-5-methyl-2,2-diphenylhexanamide hydrochloride blend in the ratio 12.5:5.5. […]

[2] = Aerosolization performance: TIR and FPM from a next generation impactor (NGI), equivalence of MGR001/MGR002 with MGR003; type: physicochemical; settings: for FPM, Pass/fail (0.90-1.11) / TIR, Pass/fail (0.90-1.11): 90% CI of ratio of geometric means within 0.90-1.11
From the text: The same batches for MGR002 and MGR003 were utilized in obtaining emitted data used to obtain aerosolization performance information. Table 5 below presents the results and equivalence criteria, respectively for 5-[3-(3-Hydroxyphenoxy)azetidin-1-yl]-5-methyl-2,2-diphenylhexanamide hydrochloride of formula II, fluticasone propionate and salmeterol.
The […] (FPM) and mean total impactor recovery (TIR) from a next generation impactor (NGI) for each batch were equivalent, based on the fact that the upper/lower 90% confidence interval of the ratio of the geometric mean, rested between 0.90 and 1.11. […] The fluticasone propionate and salmeterol xinafoate components of the MGR003 drug product also met the same performance targets as the MGR001 250/50 drug product.

[3] = FPM from next generation impactor
[4] = mean total impactor recovery, next generation impactor

FPD of the individual drug in blended combination product T3 versus baseline product [1]	FPM, ratio of geometric means (MGR002 divided by MGR003) [2, 3]	FPM, Pass/fail (0.90-1.11) ([2]; MGR002 versus MGR003)	TIR, Pass/fail (0.90-1.11) ([2]; MGR002 versus MGR003)	TIR, ratio of geometric means (MGR002 divided by MGR003) [2, 4]	FPM, ratio of geometric means (MGR001 divided by MGR003) [2, 3]	FPM, Pass/fail (0.90-1.11) ([2]; MGR001 versus MGR003)	TIR, Pass/fail (0.90-1.11) ([2]; MGR001 versus MGR003)	TIR, ratio of geometric means (MGR001 divided by MGR003) [2, 4]	SMILES
much lower FPD	0.95	Pass	Pass	0.97	–	–	–	–	CC(C)(CCC(C(N)=O)(c1ccccc1)c1ccccc1)N1CC(Oc2cccc(O)c2)C1.Cl [5-[3-(3-Hydroxyphenoxy)azetidin-1-yl]-5-methyl-2,2-diphenylhexanamide hydrochloride]
slightly lowered FPD	–	–	–	–	0.99	Pass	Pass	0.96	CCC(=O)O[C@]1(C(=O)SCF)[C@H](C)C[C@H]2[C@@H]3C[C@H](F)C4=CC(=O)C=C[C@]4(C)[C@@]3(F)[C@@H](O)C[C@@]21C [Fluticasone propionate, fluticasone propionate]
more variability	–	–	–	–	1.01	Pass	Pass	0.97	OCc1cc(C(O)CNCCCCCCOCCCCc2ccccc2)ccc1O (stereo not drawn) [Salmeterol, salmeterol xinafoate]
